{"source": "patent US9493466B2", "about": "“Treatment of cancer with TOR kinase inhibitors” (Signal Pharmaceuticals, LLC, priority 2011, dated 2016)", "assay_in_all_cases": "Growth inhibition assay for NHL lines", "assay_type_in_all_cases": "cell-based", "key": {"DB": {"tested_on": "DB", "conditions": "NHL DLBCL, 96 hours, n ≧ 3", "method": "(§1) Growth Inhibition Assay for HCC and NHL Lines. The seeding density for each cell line was optimized to ensure assay linearity in 384-well plates.\n(§2) Compound 1 was dissolved in dimethyl sulfoxide (DMSO) to prepare a 10 mM stock solution. A serial titration was performed to produce a working concentration range of […] to 10 mM. Aliquots to produce final concentrations of 1.5 nM to 10 μM were spotted via an acoustic dispenser (EDC ATS-100) into an empty 384-well plate. Compound 1 was spotted in a 10-point serial dilution fashion (3-fold dilution) in duplicate within the plate. The DMSO concentration was kept constant for a final assay concentration of 0.1% DMSO. Plates were replicated for use with different cell lines and testing periods. After compound plate replication, all plates were sealed (Agilent ThermoLoc) and stored at −20° C. for up to 1 month. […] When ready for testing, plates were removed from the freezer, thawed, and unsealed just prior to the addition of the test cells. Prior to testing, cells were grown and expanded in culture flasks to provide sufficient amounts of starting material. Cells were then diluted to the appropriate densities and added directly to the compound-spotted 384-well plates. Cells were allowed to grow for 96 hours at 37° C./5% CO2. At the time when compound was added (t0), initial cell number was assessed via a viability assay (Cell Titer-Glo) by quantifying the level of luminescence generated by ATP present in viable cells. After 96 hours, cell viability of compound-treated cells was assessed via Cell Titer-Glo and luminescence measurement. Cell lines were assayed for growth inhibition by Compound 1 in at least 3 independent tests. A control cell line (the lung tumor cell line, A549) was included in each of the assays. The compound response against this control cell line was monitored closely to enable comparison of the data generated through the assay period. All data were normalized and presented as a percentage of the DMSO-treated cells. Results were then expressed as a GI50 value. The GI50 value corrects for the cell count at time zero. In addition, the IC50 value of Compound 1 for each cell line was calculated."}, "Farage": {"tested_on": "Farage", "conditions": "NHL DLBCL, 96 hours, n ≧ 3", "method": "as §1, §2"}, "HT": {"tested_on": "HT", "conditions": "NHL DLBCL, 96 hours, n ≧ 3", "method": "as §1, §2"}, "KARPAS-1106P": {"tested_on": "KARPAS-1106P", "conditions": "NHL DLBCL, 96 hours, n ≧ 3", "method": "as §1, §2"}, "KARPAS-299": {"tested_on": "KARPAS-299", "conditions": "KARPAS-299, ALCL T-cell, 96 hours, n ≧ 3", "method": "as §1, §2"}, "KARPAS-422": {"tested_on": "KARPAS-422", "conditions": "KARPAS-422, NHL DLBCL, 96 hours, n ≧ 3", "method": "as §1, §2"}, "KASUMI-1": {"tested_on": "KASUMI-1", "conditions": "KASUMI-1, Leukemia M-AML, 96 hours, n ≧ 3", "method": "as §1, §2"}, "MOLM-13": {"tested_on": "MOLM-13", "conditions": "MOLM-13, Leukemia M-AML, 96 hours, n ≧ 3", "method": "as §1, §2"}, "OCI-LY-10": {"tested_on": "OCI-LY-10", "conditions": "OCI-LY-10, NHL DLBCL, 96 hours, n ≧ 3", "method": "as §1, §2"}, "RC-K8": {"tested_on": "RC-K8", "conditions": "RC-K8, NHL DLBCL, 96 hours, n ≧ 3", "method": "as §1, §2"}, "REC-1": {"tested_on": "REC-1", "conditions": "REC-1, NHL MCL, 96 hours, n ≧ 3", "method": "as §1, §2"}, "SU-DHL-4": {"tested_on": "SU-DHL-4", "conditions": "SU-DHL-4, NHL DLBCL, 96 hours, n ≧ 3", "method": "as §1, §2"}, "WSU-NHL": {"tested_on": "WSU-NHL", "conditions": "NHL FL, 96 hours, n ≧ 3", "method": "as §1, §2"}}}
{"smiles": "CO[C@H]1CC[C@H](N2C(=O)CNc3ncc(-c4ccc(C(C)(C)O)nc4)nc32)CC1", "note": "[Compound 1, 7-(6-(2-hydroxypropan-2-yl)pyridin-3-yl)-1-((1r,4r)-4-methoxycyclohexyl)-3,4-dihydropyrazino-[2,3-b]pyrazin-2(1H)-one]", "values": [{"measurement": "GI50", "setting": "DB", "result": "150 ± 100", "unit": "nM"}, {"measurement": "IC50", "setting": "DB", "result": "170 ± 90", "unit": "nM"}, {"measurement": "GI50", "setting": "Farage", "result": "270 ± 30", "unit": "nM"}, {"measurement": "IC50", "setting": "Farage", "result": "280 ± 40", "unit": "nM"}, {"measurement": "GI50", "setting": "HT", "result": "110 ± 40", "unit": "nM"}, {"measurement": "IC50", "setting": "HT", "result": "170 ± 50", "unit": "nM"}, {"measurement": "GI50", "setting": "KARPAS-1106P", "result": "70 ± 30", "unit": "nM"}, {"measurement": "IC50", "setting": "KARPAS-1106P", "result": "70 ± 30", "unit": "nM"}, {"measurement": "GI50", "setting": "KARPAS-299", "result": "330 ± 120", "unit": "nM"}, {"measurement": "IC50", "setting": "KARPAS-299", "result": "470 ± 220", "unit": "nM"}, {"measurement": "GI50", "setting": "KARPAS-422", "result": "20 ± 10", "unit": "nM"}, {"measurement": "IC50", "setting": "KARPAS-422", "result": "20 ± 10", "unit": "nM"}, {"measurement": "GI50", "setting": "KASUMI-1", "result": "40 ± 20", "unit": "nM"}, {"measurement": "IC50", "setting": "KASUMI-1", "result": "120 ± 30", "unit": "nM"}, {"measurement": "GI50", "setting": "MOLM-13", "result": "110 ± 20", "unit": "nM"}, {"measurement": "IC50", "setting": "MOLM-13", "result": "140 ± 20", "unit": "nM"}, {"measurement": "GI50", "setting": "OCI-LY-10", "result": "140 ± 40", "unit": "nM"}, {"measurement": "IC50", "setting": "OCI-LY-10", "result": "190 ± 40", "unit": "nM"}, {"measurement": "GI50", "setting": "RC-K8", "result": "80 ± 10", "unit": "nM"}, {"measurement": "IC50", "setting": "RC-K8", "result": "150 ± 30", "unit": "nM"}, {"measurement": "GI50", "setting": "REC-1", "result": "200 ± 40", "unit": "nM"}, {"measurement": "IC50", "setting": "REC-1", "result": "260 ± 50", "unit": "nM"}, {"measurement": "GI50", "setting": "SU-DHL-4", "result": "110 ± 40", "unit": "nM"}, {"measurement": "IC50", "setting": "SU-DHL-4", "result": "120 ± 50", "unit": "nM"}, {"measurement": "GI50", "setting": "WSU-NHL", "result": 50, "unit": "nM"}, {"measurement": "IC50", "setting": "WSU-NHL", "result": 70, "unit": "nM"}]}
